{"source": "patent US6555530B1", "about": "“Use of estrogens and delta-gonadien-21-Ol-3,20-diones for treating insulin dependent and non-insulin dependent diabetes” (Novo Nordisk A/S, priority 1999, dated 2003)", "origin": "cited, not measured here", "key": {"[1]": {"test_system": "streptozotocin diabetic rats", "details": "implanted testosterone"}, "[2]": {"test_system": "intact or ovarectomized female rats", "details": "correlated to morphological changes in muscle"}}, "data": [{"smiles": "C[C@]12CC[C@H]3[C@@H](CCC4=CC(=O)CC[C@@]43C)[C@@H]1CC[C@@H]2O", "note": "[Testosterone]", "values": [{"measurement": "glycemic control by residual insulin", "setting": "[1]", "result": "antagonized the ability of residual insulin to maintain glycemic control"}, {"measurement": "insulin resistance", "setting": "[2]", "result": "marked insulin resistance"}]}]}
